Measured values published in patent US20240358693A1, “METHODS OF TREATING PAIN” (Aisa Pharma, Inc., priority 2023, published 2024).

Test system: participants with SSc-RP
Assay: Average daily Raynaud's Condition Score (RCS)
Format: in vivo, human
Design: key to Average Daily RCS, Mean / Average Daily RCS, Median / Average Daily RCS, Change from Baseline, Mean / Average Daily RCS, Change from Baseline, Median / Average daily RCS, Baseline, Mean / Average daily RCS, Baseline, Median / Mean RCS at baseline: RCS rated on a 0-10 cm VAS scale
Conditions: for Average Daily RCS, Change from Baseline, Mean / Average Daily RCS, Change from Baseline, Median / Average Daily RCS, Percent Change from Baseline, Mean / Average Daily RCS, Percent Change from Baseline, Median / Average Daily RCS, Mean / Average Daily RCS, Median / Average Daily RCS (dosing period), Mean / Average Daily RCS (dosing period), Median / Average daily RCS, Baseline, Mean / Average daily RCS, Baseline, Median: ITT Part A; for Average Daily RCS, Mean / Average Daily RCS, Median: dosing period
Description: The RCS is based on how much difficulty participants had with Raynaud's today, how many attacks the participant had, and how long they lasted. In addition participants were and will be asked to consider how much pain, numbness, or other symptoms the Raynaud's caused in fingers (including painful sores), and how much the Raynaud's along affected the use of hand today (VAS 0-10 cm scale).
The absolute change in average daily RCS from baseline to the end of each dosing period was and will be a secondary outcome variable. The sponsor-developed participant-informed diary has been and will be used to record data. The average daily RCS is defined as the total RCS divided by the number of days with available diary data of each dosing period. Total RCS during screening period divided by the number of days with available data will be used as baseline for the analysis of all periods. If there are multiple daily RCS scores, the latest daily RCS will be used. The variable will be calculated similar to frequency data as before.

[1] = excluding outliers, dose Cilnidipine 10 mg, Tadalafil 5 mg, or 10 mg + 5 mg
[2] = excluding outliers, dose Cilnidipine 20 mg, or 20 mg + Tadalafil 5 mg
[3] = excluding outliers, pooled 10 mg and 20 mg Cilnidipine arms (combination: + Tadalafil 5 mg)
[4] = excluding outliers, pooled Cilnidipine 10 mg and Cilnidipine 10 mg + Tadalafil 5 mg
[5] = excluding outliers, pooled Cilnidipine 20 mg and Cilnidipine 20 mg + Tadalafil 5 mg
[6] = Pooled Cilnidipine 10 mg and Cilnidipine 10 mg + Tadalafil 5 mg
[7] = Pooled Cilnidipine 20 mg and Cilnidipine 20 mg + Tadalafil 5 mg

## COCCOC(=O)C1=C(C)NC(C)=C(C(=O)OC/C=C/c2ccccc2)C1c1cccc([N+](=O)[O-])c1 (stereo not shown) [Cilnidipine, cilnidipine]
Cilnidipine 10 mg
  Average Daily RCS, Change from Baseline, Mean: −0.98
  Average Daily RCS, Change from Baseline, Median: −0.98
  Average Daily RCS, Percent Change from Baseline, Mean: −35.74%
  Average Daily RCS, Percent Change from Baseline, Median: −35.74%
  Average Daily RCS, Mean: 1.76
  Average Daily RCS, Median: 1.76
Cilnidipine 20 mg
  Average Daily RCS, Change from Baseline, Mean: −0.45
  Average Daily RCS, Change from Baseline, Median: −0.45
  Average Daily RCS, Percent Change from Baseline, Mean: −17.16%
  Average Daily RCS, Percent Change from Baseline, Median: −17.16%
  Average Daily RCS, Mean: 2.90
  Average Daily RCS, Median: 2.90
Cilnidipine (20 mg) (n = 3)
  Daily RCS Change: −28%
  Mean % reduction in RCS: 27.9%
  Mean RCS at baseline: 3.5
[1]
  Average Daily RCS (dosing period), Mean: 1.76
  Average Daily RCS (dosing period), Median: 1.76
  Average Daily RCS, Change from Baseline, Mean: −0.98
  Average Daily RCS, Change from Baseline, Median: −0.98
  Average Daily RCS, Percent Change from Baseline, Mean: −35.74%
  Average Daily RCS, Percent Change from Baseline, Median: −35.74%
  Average daily RCS, Baseline, Mean: 2.74
  Average daily RCS, Baseline, Median: 2.74
[2]
  Average Daily RCS (dosing period), Mean: 2.90
  Average Daily RCS (dosing period), Median: 2.90
  Average Daily RCS, Change from Baseline, Mean: −0.45
  Average Daily RCS, Change from Baseline, Median: −0.45
  Average Daily RCS, Percent Change from Baseline, Mean: −17.16%
  Average Daily RCS, Percent Change from Baseline, Median: −17.16%
  Average daily RCS, Baseline, Mean: 3.35
  Average daily RCS, Baseline, Median: 3.35
[3]
  Average Daily RCS (dosing period), Mean: 2.52
  Average Daily RCS (dosing period), Median: 1.76
  Average Daily RCS, Change from Baseline, Mean: −0.63
  Average Daily RCS, Change from Baseline, Median: −0.98
  Average Daily RCS, Percent Change from Baseline, Mean: −23.35%
  Average Daily RCS, Percent Change from Baseline, Median: −35.74%
  Average daily RCS, Baseline, Mean: 3.15
  Average daily RCS, Baseline, Median: 2.80
[4]
  Average Daily RCS (dosing period), Mean: 2.43
  Average Daily RCS (dosing period), Median: 1.76
  Average Daily RCS, Change from Baseline, Mean: −1.64
  Average Daily RCS, Change from Baseline, Median: −1.51
  Average Daily RCS, Percent Change from Baseline, Mean: −41.77%
  Average Daily RCS, Percent Change from Baseline, Median: −36.47%
  Average daily RCS, Baseline, Mean: 4.07
  Average daily RCS, Baseline, Median: 2.85
[5]
  Average Daily RCS (dosing period), Mean: 3.60
  Average Daily RCS (dosing period), Median: 3.82
  Average Daily RCS, Change from Baseline, Mean: −1.08
  Average Daily RCS, Change from Baseline, Median: −0.59
  Average Daily RCS, Percent Change from Baseline, Mean: −18.93%
  Average Daily RCS, Percent Change from Baseline, Median: −20.71%
  Average daily RCS, Baseline, Mean: 4.68
  Average daily RCS, Baseline, Median: 3.74
[6]
  Average Daily RCS, Change from Baseline, Mean: −1.64
  Average Daily RCS, Change from Baseline, Median: −1.51
  Average Daily RCS, Percent Change from Baseline, Mean: −41.77%
  Average Daily RCS, Percent Change from Baseline, Median: −36.47%
  Average Daily RCS, Mean: 2.43
  Average Daily RCS, Median: 1.76
[7]
  Average Daily RCS, Change from Baseline, Mean: −1.08
  Average Daily RCS, Change from Baseline, Median: −0.59
  Average Daily RCS, Percent Change from Baseline, Mean: −18.93%
  Average Daily RCS, Percent Change from Baseline, Median: −20.71%
  Average Daily RCS, Mean: 3.60
  Average Daily RCS, Median: 3.82
Pooled Cilnidipine (n = 7), this value n = 3
  Daily RCS Change: 12% (n = 3)
Pooled Cilnidipine
  Average Daily RCS, Change from Baseline, Mean: −0.63
  Average Daily RCS, Change from Baseline, Median: −0.98
  Average Daily RCS, Percent Change from Baseline, Mean: −23.35%
  Average Daily RCS, Percent Change from Baseline, Median: −35.74%
  Average Daily RCS, Mean: 2.52
  Average Daily RCS, Median: 1.76

## CN1CC(=O)N2[C@H](c3ccc4c(c3)OCO4)c3[nH]c4ccccc4c3C[C@@H]2C1=O [Tadalafil, tadalafil]
[1]
  Average Daily RCS (dosing period), Mean: 4.46
  Average Daily RCS (dosing period), Median: 4.46
  Average Daily RCS, Change from Baseline, Mean: −1.58
  Average Daily RCS, Change from Baseline, Median: −1.58
  Average Daily RCS, Percent Change from Baseline, Mean: −26.18%
  Average Daily RCS, Percent Change from Baseline, Median: −26.18%
  Average daily RCS, Baseline, Mean: 6.04
  Average daily RCS, Baseline, Median: 6.04
Tadalafil 5 mg
  Average Daily RCS, Change from Baseline, Mean: −0.67
  Average Daily RCS, Change from Baseline, Median: −0.67
  Average Daily RCS, Percent Change from Baseline, Mean: −11.76%
  Average Daily RCS, Percent Change from Baseline, Median: −11.76%
  Average Daily RCS, Mean: 7.05
  Average Daily RCS, Median: 7.05
